Experimental data from PMC10954600, “A novel laccase from Trametes polyzona with high performance in the decolorization of textile dyes” (AMB Express, 2024).

System: TP-Lac2
Conditions: 25 mM tartrate buffer, pH 3.5, 50 °C; 0.05-1.5 mM ABTS

Km: 250 ± 40 µM
SMILES: CCn1c(=NN=c2sc3cc(S(=O)(=O)O)ccc3n2CC)sc2cc(S(=O)(=O)O)ccc21 [ABTS]
